From patent US9920010B2, “CXCR7 receptor modulators” (IDORSIA PHARMACEUTICALS LTD, priority 2013, dated 2018)
pEC50: −log10 of the molar value.

Molecular target: T1, CXCR7 (Homo sapiens, UniProt P25106)
T1 construct: host or cells: CHO-K1 (PathHunter CHO-K1 CXCR7 b-arrestin cell line, stably transfected)
Test: PathHunter CHO-K1 CXCR7 b-arrestin recruitment assay (CXCR7 agonistic activity)
Format: cell-based
Conditions: PathHunter CHO-K1 CXCR7 b-arrestin cell line
Method: The CXCl12 receptor and CXCR7 agonistic activities of the compounds of formula (I) are determined in accordance with the following experimental method.
The assay is using the PathHunter™ CHO-K1 CXCR7 b-arrestin cell line from DiscoverX. The system is based on the Enzyme Fragment Complementation Technology. Two complementing fragments of the b-galactosidase enzyme are expressed within stably transfected cells. The larger portion of b-gal, termed EA for Enzyme Acceptor, is fused to the C-terminus of b-arrestin 2. The smaller fragment, termed ProLink™ tag, is fused to CXCR7 at the C-terminus. Upon activation, b-arrestin is recruited which forces the interaction of ProLink and EA, allowing complementation of the two fragments of b-gal and the formation of a functional enzyme which is capable of hydrolysing the substrate and generating a chemiluminescent signal.
CHO-K1 CXCR7 b-arrestin cells are detached from culture dishes with a cell dissociation buffer (Invitrogen, #13151-014) and collected in growing medium (F12 HAMS 90% (v/v)/FCS 10% (v/v), Penicillin/streptomycin 1% (v/v)). 5000 cells per well (in 20 μl) are seeded in a 384 well plate (white-walled, clear bottom; BD Falcon #353274). The plate is incubated at 37° C./5% CO2 for 24 hours. Medium is then replaced by 20 μl OPTIMEM (Invitrogen #31985) for 3 to 4 hours. Test compounds are dissolved at 10 mM in DMSO and serially diluted in DMSO to 200× of the final concentration for dose response curves. Compounds are then diluted 1:33.3 in HBSS1×. 5 μl/well of HBSS1×/20 mM HEPES/0.2% BSA are added to the assay plate followed by addition of 5 μl/well of diluted compounds. CXCL12 (Peprotech #300-28A) may be used as a reference agonist. The plate is incubated for 90 minutes at 37° C. 12 μl of detection reagent (Path Hunter Detection Kit, DiscoveRx, #93-0001) is transferred to the assay plate and to the plate is incubated for 1 hour at room temperature. Luminescent signal is read in a microplate reader (FLUOstar Optima, bmg). The calculated EC50 values may fluctuate depending on the daily cellular assay performance. Fluctuations of this kind are known to those skilled in the art. Average EC50 values from several measurements are given as geometric mean values.

T1 sequence (P25106 whole entry): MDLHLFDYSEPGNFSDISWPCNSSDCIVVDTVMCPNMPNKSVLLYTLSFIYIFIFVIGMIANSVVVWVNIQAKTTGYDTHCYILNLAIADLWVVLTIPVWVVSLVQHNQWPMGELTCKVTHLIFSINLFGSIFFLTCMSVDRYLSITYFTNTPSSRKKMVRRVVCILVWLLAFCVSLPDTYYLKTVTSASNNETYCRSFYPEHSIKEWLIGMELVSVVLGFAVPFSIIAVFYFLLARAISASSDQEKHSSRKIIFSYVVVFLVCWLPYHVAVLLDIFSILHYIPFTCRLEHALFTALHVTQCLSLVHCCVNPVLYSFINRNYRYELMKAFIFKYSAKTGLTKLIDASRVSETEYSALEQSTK
T1 sequence (P32121 whole entry partner): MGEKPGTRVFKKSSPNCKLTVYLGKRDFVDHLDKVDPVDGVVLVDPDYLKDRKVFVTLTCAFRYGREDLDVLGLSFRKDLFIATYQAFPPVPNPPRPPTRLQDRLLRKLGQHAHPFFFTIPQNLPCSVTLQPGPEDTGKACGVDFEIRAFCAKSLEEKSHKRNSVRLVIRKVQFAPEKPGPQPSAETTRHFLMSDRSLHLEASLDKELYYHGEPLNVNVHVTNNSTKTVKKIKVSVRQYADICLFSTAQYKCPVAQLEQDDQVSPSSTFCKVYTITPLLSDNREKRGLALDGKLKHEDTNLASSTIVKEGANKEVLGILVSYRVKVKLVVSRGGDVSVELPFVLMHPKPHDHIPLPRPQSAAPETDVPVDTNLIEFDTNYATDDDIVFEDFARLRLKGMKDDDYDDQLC

| SMILES | pEC50 |
| --- | --- |
| CCC(=O)N1CCc2c(cccc2NCC(=O)N(CCN(C)C)Cc2ccccc2F)C1 [Example 23, N-(2-Dimethylamino-ethyl)-N-(2-fluoro-benzyl)-2-(2-propionyl-1,2,3,4-tetrahydro-isoquinolin-5-ylamino)-acetamide] | 7.80 |
| CNCCN(Cc1ncccc1C(F)(F)F)C(=O)CNc1cccc2c1CCN(C(=O)C(C)C)C2 [compound 412, 2-(2-Isobutyryl-1,2,3,4-tetrahydro-isoquinolin-5-ylamino)-N-(2-methylamino-ethyl)-N-(3-trifluoromethyl-pyridin-2-ylmethyl)-acetamide] | 7.70 |
| COCCN1CCc2c(/C=C/C(=O)N(CCC(C)(C)C)Cc3ncccc3C)cccc2C1 [Example 320, (E)-N-(3,3-Dimethyl-butyl)-3-[2-(2-methoxy-ethyl)-1,2,3,4-tetrahydro-isoquinolin-5-yl]-N-(3-methyl-pyridin-2-ylmethyl)-acrylamide] | 6.81 |
| CN(C)CCN(Cc1ncccc1Br)C(=O)CNc1cccc2c1C(C)(C)CN(CC1CC1)C2 [Example 575, N-(3-Bromo-pyridin-2-ylmethyl)-2-(2-cyclopropylmethyl-4,4-dimethyl-1,2,3,4-tetrahydro-isoquinolin-5-ylamino)-N-(2-dimethylamino-ethyl)-acetamide] | 9.05 |
| CN(C)CCN(Cc1ncccc1Cl)C(=O)CNc1cccc2c1CN(CC1CC1)CC2 [compound 485, N-(3-Chloro-pyridin-2-ylmethyl)-2-(2-cyclopropylmethyl-1,2,3,4-tetrahydro-isoquinolin-8-ylamino)-N-(2-dimethylamino-ethyl)-acetamide] | 8.10 |
| CCN1CCc2cccc(NCC(=O)N(Cc3ccccc3)C3CCNC3)c2C1 (racemic) [compound 378] | 6.49 |
| CCC(=O)N1CCc2c(cccc2NCC(=O)N(CCc2ccccc2)CCN(C)C)C1 [Example 17, N-(2-Dimethylamino-ethyl)-N-phenethyl-2-(2-propionyl-1,2,3,4-tetrahydro-isoquinolin-5-ylamino)-acetamide] | 6.87 |
| CN(C)CCN(Cc1ncccc1Cl)C(=O)CNc1cccc2c1CCN(C(=O)[C@@H]1C[C@@H]1F)C2 (racemic) [Example 293, rac-N-(3-Chloro-pyridin-2-ylmethyl)-N-(2-dimethylamino-ethyl)-2-[2-((1S*,2S*)-2-fluoro-cyclopropanecarbonyl)-1,2,3,4-tetrahydro-isoquinolin-5-ylamino]-acetamide] | 7.70 |
| CCC(=O)N1CCc2c(cccc2NCC(=O)N(Cc2ccccc2)Cc2ccccn2)C1 [Example 25, N-Benzyl-2-(2-propionyl-1,2,3,4-tetrahydro-isoquinolin-5-ylamino)-N-pyridin-2-ylmethyl-acetamide] | 6.51 |
| CCN1CCc2cccc(NCC(=O)N(CCc3cccc(C(F)(F)F)c3)CCN(C)C)c2C1 [compound 539] | 6.94 |
| COCCN1CCc2c(CCC(=O)N(Cc3ccccc3C(F)(F)F)CC(C)(C)O)cccc2C1 [Example 341, N-(2-Hydroxy-2-methyl-propyl)-3-[2-(2-methoxy-ethyl)-1,2,3,4-tetrahydro-isoquinolin-5-yl]-N-(2-trifluoromethyl-benzyl)-propionamide] | 6.40 |
| CN(C)CCN(Cc1ccccc1C(F)(F)F)C(=O)CNc1cccc2c1CN(CC1CC1)CC2 [compound 475] | 6.92 |
| COCCN1CCc2c(CCC(=O)N(CCC(C)(C)O)Cc3ccccc3C(F)(F)F)cccc2C1 [Example 344, N-(3-Hydroxy-3-methyl-butyl)-3-[2-(2-methoxy-ethyl)-1,2,3,4-tetrahydro-isoquinolin-5-yl]-N-(2-trifluoromethyl-benzyl)-propionamide] | 6.36 |

Second part, the molecule after the results:

| pEC50 | SMILES |
| --- | --- |
| 7.89 | C=CCN1CCc2cccc(NCC(=O)N(CCN(C)C)Cc3ccccc3C(F)(F)F)c2C1 [compound 466, 2-(2-Allyl-1,2,3,4-tetrahydro-isoquinolin-8-ylamino)-N-(2-dimethylamino-ethyl)-N-(2-trifluoromethyl-benzyl)-acetamide] |
| 7.96 | COCC(C)N1CCc2c(cccc2NCC(=O)N(CCN(C)C)Cc2ccccc2C(F)(F)F)C1 (racemic) [Example 354, rac-N-(2-Dimethylamino-ethyl)-2-[2-(2-methoxy-1-methyl-ethyl)-1,2,3,4-tetrahydro-isoquinolin-5-ylamino]-N-(2-trifluoromethyl-benzyl)-acetamide] |
| 8.70 | O=C(CNc1cccc2c1CCN(CC1CC1)C2)N(CCN1CCCCCC1)Cc1ccccc1C(F)(F)F [Example 218, N-(2-Azepan-1-yl-ethyl)-2-(2-cyclopropylmethyl-1,2,3,4-tetrahydro-isoquinolin-5-ylamino)-N-(2-trifluoromethyl-benzyl)-acetamide] |
| 8.40 | CC(CF)N(C)CCN(Cc1ccccc1C(F)(F)F)C(=O)CNc1cccc2c1CCN(CC1CC1)C2 (racemic) [compound 452] |
| 7.08 | CCN1Cc2c(cccc2NCC(=O)N(CCN(C)C)Cc2ccccc2C(F)(F)F)CC1=O [compound 543] |
| 8.70 | CN(CCN(Cc1ccccc1C(F)(F)F)C(=O)CNc1cccc2c1CCN(CC1CC1)C2)C1CCOC1 (racemic) [compound 448] |
| 8.30 | CN(C)CCN(Cc1ccccc1C(F)(F)F)C(=O)CNc1cccc2c1CCN(C(=O)[C@@H]1C[C@@H]1F)C2 (single isomer, unassigned) [Example 363b, N-(2-Dimethylamino-ethyl)-2-[2-((1 S*,2S*)-2-fluoro-cyclopropanecarbonyl)-1,2,3,4-tetrahydro-isoquinolin-5-ylamino]-N-(2-trifluoromethyl-benzyl)-acetamide] |
| 8.10 | CN(C)CCN(Cc1ccccc1C(F)(F)F)C(=O)CNc1cccc2c1CN(C(=O)N(C)C)CC2 [Example 546, 8-({[(2-Dimethylamino-ethyl)-(2-trifluoromethyl-benzyl)-carbamoyl]-methyl}-amino)-3,4-dihydro-1H-isoquinoline-2-carboxylic acid dimethylamide] |
| 7.89 | O=C(CNc1cccc2c1CCN(CC1CC1)C2)N(Cc1ccccc1C(F)(F)F)CC1COCCO1 (centres unmarked) [Example 226, 2-(2-Cyclopropylmethyl-1,2,3,4-tetrahydro-isoquinolin-5-ylamino)-N-[1,4]dioxan-2-ylmethyl-N-(2-trifluoromethyl-benzyl)-acetamide] |
| 9.00 | CC1c2cccc(NCC(=O)N(CCN(C)C)Cc3ccccc3C(F)(F)F)c2CCN1CC1CC1 (single isomer, unassigned) [Example 211a, (S)- or (R)-2-((2-(Cyclopropylmethyl)-1-methyl-1,2,3,4-tetrahydroisoquinolin-5-yl)amino)-N-(2-(dimethylamino)ethyl)-N-(2-(trifluoromethyl)benzyl)acetamide] |
| 6.70 | CNCCN(Cc1ccccc1C(F)(F)F)C(=O)CNc1cccc2c1CCN(C(=O)OCC(C)(C)C)C2 [compound 402] |
| 8.10 | COc1ccc2c(c1NCC(=O)N(CCN(C)C)Cc1ccccc1C(F)(F)F)CCN(CC1CC1)C2 [Example 89, 2-(2-Cyclopropylmethyl-6-methoxy-1,2,3,4-tetrahydro-isoquinolin-5-ylamino)-N-(2-dimethylamino-ethyl)-N-(2-trifluoromethyl-benzyl)-acetamide] |
| 8.15 | CNCCN(Cc1ccccc1C(F)(F)F)C(=O)CNc1cccc2c1CCN(C(=O)C1CC1)C2 [Example 385, 2-(2-Cyclopropanecarbonyl-1,2,3,4-tetrahydro-isoquinolin-5-ylamino)-N-(2-methylamino-ethyl)-N-(2-trifluoromethyl-benzyl)-acetamide] |
| 8.10 | C/C(=C\c1ccccc1)CN(CCN(C)C)C(=O)CNc1cccc2c1CCN(CC1CC1)C2 [Example 45, 2-(2-Cyclopropylmethyl-1,2,3,4-tetrahydro-isoquinolin-5-ylamino)-N-(2-dimethylamino-ethyl)-N-((E)-2-methyl-3-phenyl-allyl)-acetamide] |
| 7.04 | C[C@H](Nc1cccc2c1CCN(CC1CC1)C2)C(=O)N(CCN(C)C)Cc1ccccc1C(F)(F)F [Example 291, (S)-2-(2-Cyclopropylmethyl-1,2,3,4-tetrahydro-isoquinolin-5-ylamino)-N-(2-dimethylamino-ethyl)-N-(2-trifluoromethyl-benzyl)-propionamide] |
| 6.63 | CN1CCN(C(=O)CNc2cccc3c2CCN(CC2CC2)C3)C(c2ccccc2)C1 (racemic) [Reference Example 104, rac-2-(2-Cyclopropylmethyl-1,2,3,4-tetrahydro-isoquinolin-5-ylamino)-1-(4-methyl-2-phenyl-piperazin-1-yl)-ethanone] |
